How the values were obtained:
[1] = system: ICR mice; test: MK-801 induced hyperactivity in the open field; assay type: in vivo; conditions: MK-801 0.1 mg/kg i.p. immediately before open field for one hour (FIG. 3A)
Description: Hyperactivity induced in rodents by the NMDA receptor antagonist, MK-801, is a key rodent pharmacological model of acute psychotic features in humans.
Drugs which induce psychosis in humans enhance MK-801 induced hyperactivity in rodents while antipsychotic drugs reduce or block the effect.
In order to determine the interactive effects of PSIL and CLZ, a murine model was used where MK-801 induced hyperactivity, was assessed, which serves as a surrogate system for psychotic symptoms in schizophrenia patients.
Toward this end PSIL and CLZ alone and in combination were evaluated for their effects on MK-801 induced hyperactivity in […].
ICR mice were administered MK-801 intra-peritoneally, at a dose of 0.1 mg/kg immediately before they were placed in an open field for one hour. 30 minutes prior to administration of MK-801, mice were pretreated as follows: • 1. PSIL at a dosage of 4.4 mg/kg; • 2. CLZ at a dosage of 1.0 mg/kg; • 3. PSIL at a dosage of 4.4 mg/kg and CLZ at a dosage of 1.0 mg/kg; • 4. D-Serine (DSR) at a dosage of 3000 mg/kg; • 5. D-cycloserine (DCS) at a dosage of 320 mg/kg; • 6. […]
Activity in the open field was monitored by an overhead camera and was recorded by a Noldus Ethovision apparatus. […] Distance moved/travelled in the open field, center duration and center frequency were evaluated in the open field arena.

[2] = system: male ICR mice; test: Head twitch response (HTR) induced by psilocybin in mice; assay type: in vivo
Text: The head twitch response (HTR) induced by serotonergic psychedelic agents such as psilocybin (PSIL) in rodents, is a characteristic behavioral effect mediated by cortical 5-HT2A receptors that is highly correlated with the psychedelic trip induced by these agents in humans.
In order to determine whether the negative effects such as HTR could be blocked in schizophrenic patients administered psilocybin (PSIL) (which ordinarily would produce “trip-induced effects”) upon further receiving clozapine (CLZ), the effect of concurrent CLZ treatment in blocking the HTR-inducing effect of PSIL in mice was examined.
Toward this end, male ICR mice (aged 8 weeks) were implanted with mini car-magnets and were administered the following treatments intraperitoneally (i.p.): • 1. CLZ at a dosage of 1 or 2 mg/kg weight; • 2. PSIL at a dosage of 4.4 mg/kg weight; • 3. CLZ at a dosage of 1 mg/kg weight and PSIL at a dosage of 4.4 mg/kg weight; • 4. CLZ at a dosage of 2 mg/kg weight and PSIL at a dosage of 4.4 mg/kg weight; and • 5. Vehicle (Saline) controls.
CLZ was administered 30 minutes before PSIL. All injection volumes were identical. HTR was assessed in up to 6 mice simultaneously over a 20-minute period using a purpose-built magnetometer and custom software. Experiments were approved by the Authority for Biological and Biomedical Models, Hebrew University
To further extend these studies, it was of interest to determine the HTR effects induced by Psilocybin when mice were pre-administered D-Serine 3000 mg/kg, as opposed to CLZ (FIG. 2A), or D-Serine 1500 mg/kg, as opposed to CLZ (FIG. 2B).

[3] = system: GAP43; test: Western Blot of synaptic protein GAP43 in brain regions, 7 days post-administration; assay type: in vivo, mice; conditions: for GAP43 protein levels: single i.p. injection (psilocybin 4.4 mg/kg, D-Serine 3 g/kg or both), 7 days post-administration, vs saline controls (FIG. 4)
Description: (§1) Specifically, ICR mice were administered a single intra-peritoneal injection of psilocybin at a dosage of 4.4 mg/kg, D-Serine at a dosage of 3 g/kg, a combined psilocybin dosage of 4.4 mg/kg+D-Serine dosage of 3 g/kg and compared to control animals (administered a saline vehicle). 7 days post-administration, animals were harvested, and individual brain regions were dissected, homogenized and processed for Western Blot analysis, probing for GAP43, Synaptophysin and SV2A protein expression, using commercially available reagents (Abcam).
(§2) Animals injected with PSIL or D-SER or the combination of the two were specifically probed for changes in synaptic protein expression, for proteins that are pivotally involved in neuroplasticity of the brain, focusing on 4 key regions: the brain frontal cortex, hippocampus, amygdala and striatum.
(§3) In order to comparatively assess all the effects of individual DSER or PSIL and combined DSER and PSIL administration on each brain region, a nested analysis of variance in which the level each of the synaptic proteins was compared to controls was assessed across the four brain regions frontal cortex, hippocampus, amygdala and striatum (FIG. 6).

[4] = system: Synaptophysin; test: Western Blot of synaptic protein Synaptophysin in brain regions, 7 days post-administration; assay type: in vivo, mice
Description: as §1, §2, §3

[5] = system: SV2A; test: Western Blot of synaptic protein SV2A in brain regions, 7 days post-administration; assay type: in vivo, mice; conditions: hippocampus; single i.p. injection (D-Serine 3 g/kg or with psilocybin 4.4 mg/kg); 7 days post-administration (FIG. 5)
Description: as §1, §2, §3

[6] = across the four brain regions frontal cortex, hippocampus, amygdala and striatum, 7 days post-administration (FIG. 6)

SMILES: C[C@]12N[C@H](Cc3ccccc31)c1ccccc12 [MK-801]
- distance travelled in the open field [1]: marked movement

SMILES: N[C@@H]1CONC1=O [DCS, D-cycloserine]
- HTR ([2]; DCS alone): did not affect HTR
- PSIL-mediated increased HTR over time ([2]; plotted for up to 30 minutes, DCS at doses of over 320 mg/kg with PSIL (FIG. 2E)): rapid abrogation

SMILES: N[C@H](CO)C(=O)O [D-Serine]
- PSIL-mediated increased HTR ([2]; D-Serine 3000 mg/kg (FIG. 2A) or 1500 mg/kg (FIG. 2B) pre-administered before Psilocybin): significantly reduced
- HTR ([2]; DSR alone): did not affect HTR
- PSIL-mediated HTR over time ([2]; lower D-serine dose with PSIL (FIG. 2C)): consistent over time
- GAP43 levels, nested analysis of variance compared to controls [3, 6]: increase
- GAP43 protein levels ([3]; amygdala): significantly increased
- GAP43 protein levels ([3]; frontal cortex): significantly increased
- Synaptophysin expression, nested analysis of variance compared to controls [4, 6]: increasing levels
- synaptophysin protein expression ([4]; frontal cortex, single i.p. injection D-Serine 3 g/kg, 7 days post-administration (FIG. 5)): increased
- SV2A expression [5]: increased

— US20260083759A1, “Combinations Comprising Psychedelics for the Treatment of Schizophrenia and Other Neuropsychiatric and Neurologic Disorders” (HADASIT MEDICAL RESEARCH SERVICES AND DEVELOPMENT LTD, priority 2022, published 2026)
